Experimental data reported in paper PMC2690590, “Functional recombinant MHC class II molecules and high-throughput peptide-binding assays” (Immunome Research, 2009).
Each block holds one compound with its values, some of them ahead of it. Where no end group is shown, it is not given here.

Tests used:
DR1 = DR1 (Homo sapiens, UniProt P01903+P01911, A100R/D57E/F55L/F60I/F76Y/I96L/L162R/M171V/P40L/Q125E/R42F/V115G/Y59C); experiment: Effects of additives on the refolding of DR1, spun column assay; format: biochemical; settings: for Harmfull (to DR1 refolding): additive titrated in refolding buffer pH 8 without glycerol, 3 nM 125I YHA306-318, 80 nM DR1 α and β chains
[1] = molecular target: T1, DR2a (DRA*0101/DRB5*0101) (Homo sapiens, UniProt P01903+Q30154); experiment: Competitive LOCI peptide-MHC-II binding assay, DR2a
T1 construct: DRA*01011-181LZFos; DRB5*01011-190LZJunBSP; made in house

[2] = molecular target: T1, DR2a (DRA*0101/DRB5*0101); experiment: Direct LOCI peptide-MHC-II binding assay, DR2a
DR3 (DRA*0101/DRB1*0301) = molecular target: T2, DR3 (DRA*0101/DRB1*0301) (Homo sapiens, UniProt P01903+P01911, A100K/A102G/A103R/A169T/F55Y/I96L/K41T/L162R/M171V/P40S/Q125H/Q178H/Q39Y/R42S/S66N/T106N/T262R/W38E/Y61H); experiment: Direct LOCI peptide-MHC-II binding assay, DR3
T2 construct: DRA*01011-181LZFos; DRB1*03011-190LZJunBSP; made in house

DR4 (DRA*0101/DRB1*0401) = molecular target: T3, DR4 (DRA*0101/DRB1*0401) (Homo sapiens, UniProt P01903+P01911, A100K/A169T/F76Y/I96L/K127E/L162R/M171V/N62H/P40V/Q125Y/R42H/S133A/S149N/S66Y/V115G/V209L/W38E); experiment: Direct LOCI peptide-MHC-II binding assay, DR4
T3 construct: DRA*01011-181LZFos; DRB1*04011-190LZJunBSP; made in house

[3] = molecular target: T4, DRB1*0813 (DRA*0101/DRB1*0813) (Homo sapiens, UniProt P01903+P01911, A100R/A103L/A169T/F76Y/H45Y/I96L/K41T/L162R/M171V/P40S/Q125H/Q178H/Q39Y/Q99D/R218S/R42G/S66Y/V115G/W38E); experiment: Direct LOCI peptide-MHC-II binding assay, DRB1*0813
T4 construct: DRA*01011-181LZFos; DRB1*08131-190LZJunBSP; made in house

[4] = molecular target: T5, DRB3*0301 (DRA*0101/DRB3*0301) (Homo sapiens, UniProt P01903+P79483, A169T/A212P/D57E/G115V/L67V/Q178H/R103Q/R40L/Y55F); experiment: Direct LOCI peptide-MHC-II binding assay, DRB3*0301
T5 construct: DRA*01011-181LZFos; DRB3*03011-190LZJunBSP; made in house

[5] = molecular target: DP401 (DPA1*0103/DPB1*0401) (Homo sapiens, UniProt P04440+P20036); experiment: Direct LOCI peptide-MHC-II binding assay, DP401
I-E^d = molecular target: T6, I-E^d (Mus musculus, UniProt P01904+P01915); experiment: Direct LOCI peptide-MHC-II binding assay, I-E^d
T6 construct: I-E^dA1-191LZFos; I-E^dB1-198LZJunBSP; made in house

[6] = refolding buffer pH 8 without glycerol, 3 nM 125I YHA306-318, 80 nM DR1

Compound: CC(C)O [Isopropanol]
Harmfull (to DR1 refolding) (DR1): Yes | additive concentration at 50 % signal reduction (DR1; [6]): 5 Vol %

Compound: Oc1ccc(Cl)cc1 [parachlorophenol (pCP), parachlorophenol]
Harmfull (to DR1 refolding) (DR1): Yes | additive concentration at 50 % signal reduction (DR1; [6]): 4 mM

Compound: [Cl-].[Na+] [NaCl, Sodium Chloride]
Harmfull (to DR1 refolding) (DR1): Yes | additive concentration at 50 % signal reduction (DR1; [6]): 100 mM

Compound: YILLKKILSSRFNQM [Plasmodium Falciparum]
IC50 ([1]; DR2a Komp IC50 (nM)): 2 nM | IC50 ([1]; IC50, DR2a inhibition assay): 0.6 nM | Kd [2]: 4 nM | Kd (DR3 (DRA*0101/DRB1*0301)): 32 nM | Kd (DR4 (DRA*0101/DRB1*0401); DR4 affinity (nM)): 94 nM | Kd (DR4 (DRA*0101/DRB1*0401); KD, DR4): 133 nM | Kd [3]: 4 nM | Kd [4]: 1 nM | Kd ([5]; DP401 affinity (nM)): 1 nM | Kd ([5]; KD, DP401): 0.8 nM | Kd (I-E^d; I-E^D affinity (nM)): 20 nM | Kd (I-E^d; KD, I-E^d): 14 nM

Compound: PIVQNIQGQMVHQ [HIV]
IC50 ([1]; DR2a Komp IC50 (nM)): 852 nM | Kd [2]: 447 nM | Kd (DR3 (DRA*0101/DRB1*0301)): 471 nM | Kd (DR4 (DRA*0101/DRB1*0401); DR4 affinity (nM)): > 5000 nM | Kd [3]: > 5000 nM | Kd [4]: 23 nM | Kd ([5]; DP401 affinity (nM)): > 5000 nM | Kd (I-E^d; I-E^D affinity (nM)): > 5000 nM

Compound: C[C@H](CCC(=O)O)[C@H]1CC[C@H]2[C@@H]3CC[C@@H]4C[C@H](O)CC[C@]4(C)[C@H]3C[C@H](O)[C@]12C [DOC, Deoxycholate]
Harmfull (to DR1 refolding) (DR1): Yes/No | Positive effect up to (harmful at higher concentrations) (DR1; [6]): Positive effect up to 0.02 % Harmfull at higher concentrations

Compound: CC[C@H](C)[C@H](NC(=O)[C@@H](N)CCCCN)C(=O)N[C@@H](CC(C)C)C(=O)N[C@@H](CCC(=O)O)C(=O)N1CCC[C@H]1C(=O)N[C@@H](Cc1ccccc1)C(=O)N[C@@H](CCCNC(=N)N)C(=O)N[C@@H](CCCCN)C(=O)N[C@@H](Cc1ccc(O)cc1)C(=O)N[C@H](C(=O)N[C@@H](C)C(=O)N[C@@H](Cc1ccccc1)C(=O)N[C@H](C(=O)N[C@H](C(=O)N1CCC[C@H]1C(=O)O)[C@@H](C)CC)[C@@H](C)O)[C@@H](C)O
IC50 ([1]; DR2a Komp IC50 (nM)): 1 nM | Kd [2]: 16 nM | Kd (DR3 (DRA*0101/DRB1*0301)): 18 nM | Kd (DR4 (DRA*0101/DRB1*0401); DR4 affinity (nM)): 1600 nM | Kd [3]: 11 nM | Kd [4]: 1020 nM | Kd ([5]; DP401 affinity (nM)): 30 nM | Kd (I-E^d; I-E^D affinity (nM)): 2200 nM

Second part, led by results:

Harmfull (to DR1 refolding) (DR1): No | effect on DR1 refolding (in words) (DR1; refolding buffer pH 8, 3 nM 125I YHA306-318, 80 nM DR1): Enhances folding in whole range tested
Compound: OCC(O)CO [Glycerol]

Harmfull (to DR1 refolding) (DR1): Yes/No
Compound: NC(N)=O [Urea]
Ok up to (harmful at higher concentrations) (DR1; [6]): Ok up to 400 mM. Harmfull at higher concentrations

Harmfull (to DR1 refolding) (DR1): No | Ok up to (DR1; [6]): Ok up to 0.5 w/w %
Compound: CCCCCCCCO[C@@H]1O[C@H](CO)[C@@H](O)[C@H](O)[C@H]1O [Beta octyl glucoside]

Harmfull (to DR1 refolding) (DR1): Yes | additive concentration at 50 % signal reduction (DR1; [6]): 0.01 Vol %
Compound: CCCCCCCCCCCC(=O)N(C)CC(=O)O [N-Laurylsarcosin]

Harmfull (to DR1 refolding) (DR1): Yes | additive concentration at 50 % signal reduction (DR1; [6]): 2.5 Vol %
Compound: CCC(C)O (stereo not shown) [2-Butanol]
